From patent US12516056B2, “Compounds for inhibition of janus kinase 1” (MANKIND PHARMA LTD., priority 2019, dated 2026)
Like-named read-outs stand apart in the source and are kept apart here.

Columns and labels:
Recombinant JAK1 = target: T1, Recombinant JAK1 (Homo sapiens, UniProt P23458); test: JAK biochemical assay (LANCE Ultra TR-FRET), JAK1; settings: recombinant JAK1, TR-FRET; read-out: Biochemical Assay (μM) JAK1
T1 construct: purchased Carna Biosciences
Outline: (§1)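 TR-FRET read-out of ULight substrate phosphorylation by recombinant kinase gives % inhibition relative to vehicle. The assay buffer is HEPES pH 7.5 with EGTA, MgCl2, DTT and Tween-20.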

Recombinant JAK2 = target: T2, Recombinant JAK2 (Homo sapiens, UniProt O60674); test: JAK biochemical assay (LANCE Ultra TR-FRET), JAK2; settings: recombinant JAK2, TR-FRET; read-out: Biochemical Assay (μM) JAK2
T2 construct: purchased Carna Biosciences
Outline: as §1

[1] = test system: STAT3 phosphorylation by IL-6 in TF-1 cells; test: JAK cellular assay: STAT3 phosphorylation by IL-6 in TF-1 cells (HTRF); format: cell-based; settings: IL-6 30 ng/ml, pSTAT3 HTRF, read-out: Cell Based Assay (μM) TF-1/IL-6/pSTAT3
Outline: (§2)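 Phospho-STAT3 (IL-6, 30 ng/ml) and phospho-STAT5 (GMCSF, 5 ng/ml) read by HTRF in lysates after 20 min cytokine exposure, minus unstimulated-cell background. Cells were serum-starved overnight, plated at 120,000/well, given compound 30 min at 37 °C beforehand; DMSO 0.2% final.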

[2] = test system: STAT5 phosphorylation by GMCSF in TF-1 cells; test: JAK cellular assay: STAT5 phosphorylation by GMCSF in TF-1 cells (HTRF); format: cell-based; settings: TF-1 cells, GMCSF 5 ng/ml, pSTAT5 HTRF, read-out: Cell Based Assay (μM) TF-1/GMCSF/pSTAT5
Outline: as §2

[3] = test system: STAT5 phosphorylation by IL-2 in HT-2 cells; test: STAT5 phosphorylation by IL-2 in HT-2 cells (HTRF); format: cell-based; settings: IL-2 50 U/ml, pSTAT5 HTRF, read-out: Cell Based Assay (μM) HT-2/IL-2/pSTAT5
Outline: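 Readout is HTRF detection of phospho-STAT5 in lysates, corrected for signal from unstimulated cells. Before lysis, HT-2 cells starved in 10% FBS medium received compound for 30 min (0.2% DMSO final, 37 °C), followed by 50 U/ml recombinant human IL-2 for 20 min.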

[4] = test system: IFN-γ production in NK 92 cells by IL-12; test: IFN-γ production in NK 92 cells by IL-12 (ELISA); settings: NK92, IFN-γ secretion, read-out: Cell Based Assay (μM) NK-92/IL-2/IFN-γ
Recombinant JAK3 = target: T3, Recombinant JAK3 (Homo sapiens, UniProt P52333); test: JAK biochemical assay (LANCE Ultra TR-FRET), JAK3; settings: recombinant JAK3, TR-FRET; read-out: Biochemical Assay (μM) JAK3
T3 construct: purchased Carna Biosciences
T3 sequence (P52333 1-1124): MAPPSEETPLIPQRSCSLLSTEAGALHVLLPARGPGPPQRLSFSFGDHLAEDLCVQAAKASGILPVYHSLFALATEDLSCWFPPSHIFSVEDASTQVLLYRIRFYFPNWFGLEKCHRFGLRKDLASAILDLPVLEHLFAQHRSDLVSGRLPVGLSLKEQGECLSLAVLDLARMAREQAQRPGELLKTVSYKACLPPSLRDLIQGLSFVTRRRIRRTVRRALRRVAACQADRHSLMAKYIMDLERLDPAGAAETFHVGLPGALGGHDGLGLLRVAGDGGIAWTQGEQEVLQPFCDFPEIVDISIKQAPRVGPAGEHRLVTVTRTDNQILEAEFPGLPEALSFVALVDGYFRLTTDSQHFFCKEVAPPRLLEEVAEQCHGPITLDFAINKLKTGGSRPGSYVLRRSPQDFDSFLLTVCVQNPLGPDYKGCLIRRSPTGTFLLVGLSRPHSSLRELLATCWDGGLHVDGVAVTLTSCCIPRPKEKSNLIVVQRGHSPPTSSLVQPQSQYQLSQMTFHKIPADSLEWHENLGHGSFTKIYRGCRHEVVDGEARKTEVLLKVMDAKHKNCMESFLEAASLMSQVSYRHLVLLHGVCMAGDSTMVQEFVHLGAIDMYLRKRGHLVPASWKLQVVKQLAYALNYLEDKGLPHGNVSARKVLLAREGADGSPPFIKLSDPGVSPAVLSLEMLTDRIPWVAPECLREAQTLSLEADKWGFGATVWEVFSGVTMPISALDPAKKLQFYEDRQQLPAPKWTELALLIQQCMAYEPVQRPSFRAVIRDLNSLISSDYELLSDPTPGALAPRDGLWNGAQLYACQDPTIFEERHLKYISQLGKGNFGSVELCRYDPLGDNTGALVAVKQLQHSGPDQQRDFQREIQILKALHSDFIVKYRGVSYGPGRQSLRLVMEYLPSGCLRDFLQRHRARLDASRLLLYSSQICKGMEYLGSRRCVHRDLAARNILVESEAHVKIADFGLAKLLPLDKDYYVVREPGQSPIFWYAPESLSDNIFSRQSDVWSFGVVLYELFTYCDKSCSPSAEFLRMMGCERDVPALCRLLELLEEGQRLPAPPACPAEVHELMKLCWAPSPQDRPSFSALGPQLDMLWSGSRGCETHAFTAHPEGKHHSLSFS
Outline: as §1

Recombinant TYK2 = target: T4, Recombinant TYK2 (Homo sapiens, UniProt P29597); test: JAK biochemical assay (LANCE Ultra TR-FRET), TYK2; settings: recombinant TYK2, TR-FRET; read-out: Biochemical Assay (μM) TYK2
T4 construct: purchased Carna Biosciences
Outline: as §1

T4 sequence (P29597 whole entry): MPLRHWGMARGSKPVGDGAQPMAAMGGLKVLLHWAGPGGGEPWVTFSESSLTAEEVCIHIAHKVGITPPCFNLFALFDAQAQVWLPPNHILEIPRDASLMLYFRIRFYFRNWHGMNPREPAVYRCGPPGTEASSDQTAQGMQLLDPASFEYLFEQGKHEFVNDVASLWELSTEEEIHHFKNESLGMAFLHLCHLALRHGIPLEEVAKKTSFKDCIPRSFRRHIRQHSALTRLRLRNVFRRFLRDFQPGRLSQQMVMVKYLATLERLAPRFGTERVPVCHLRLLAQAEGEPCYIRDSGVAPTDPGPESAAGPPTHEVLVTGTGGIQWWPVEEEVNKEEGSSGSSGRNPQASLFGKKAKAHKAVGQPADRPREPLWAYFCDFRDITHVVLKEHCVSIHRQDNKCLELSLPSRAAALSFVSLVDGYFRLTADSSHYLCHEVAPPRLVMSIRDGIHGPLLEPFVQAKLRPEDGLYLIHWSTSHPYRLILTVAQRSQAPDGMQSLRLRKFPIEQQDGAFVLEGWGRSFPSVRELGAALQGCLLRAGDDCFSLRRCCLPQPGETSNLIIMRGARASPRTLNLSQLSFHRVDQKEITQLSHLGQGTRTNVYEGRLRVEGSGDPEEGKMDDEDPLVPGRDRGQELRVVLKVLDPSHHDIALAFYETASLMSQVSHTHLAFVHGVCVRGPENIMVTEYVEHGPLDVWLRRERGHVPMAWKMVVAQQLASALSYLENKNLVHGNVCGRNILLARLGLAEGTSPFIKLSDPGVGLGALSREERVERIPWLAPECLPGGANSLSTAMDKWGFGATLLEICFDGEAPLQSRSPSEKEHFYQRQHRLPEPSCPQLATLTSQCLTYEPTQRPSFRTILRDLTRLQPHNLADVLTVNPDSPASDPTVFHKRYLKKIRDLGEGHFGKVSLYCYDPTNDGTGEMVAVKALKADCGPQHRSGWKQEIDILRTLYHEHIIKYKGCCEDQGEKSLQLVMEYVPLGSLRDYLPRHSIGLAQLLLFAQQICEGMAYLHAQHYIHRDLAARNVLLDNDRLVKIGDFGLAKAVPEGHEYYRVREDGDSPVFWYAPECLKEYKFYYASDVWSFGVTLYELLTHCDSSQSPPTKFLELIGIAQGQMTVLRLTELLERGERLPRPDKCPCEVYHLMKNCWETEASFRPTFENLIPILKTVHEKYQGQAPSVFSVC
T2 sequence (O60674 whole entry): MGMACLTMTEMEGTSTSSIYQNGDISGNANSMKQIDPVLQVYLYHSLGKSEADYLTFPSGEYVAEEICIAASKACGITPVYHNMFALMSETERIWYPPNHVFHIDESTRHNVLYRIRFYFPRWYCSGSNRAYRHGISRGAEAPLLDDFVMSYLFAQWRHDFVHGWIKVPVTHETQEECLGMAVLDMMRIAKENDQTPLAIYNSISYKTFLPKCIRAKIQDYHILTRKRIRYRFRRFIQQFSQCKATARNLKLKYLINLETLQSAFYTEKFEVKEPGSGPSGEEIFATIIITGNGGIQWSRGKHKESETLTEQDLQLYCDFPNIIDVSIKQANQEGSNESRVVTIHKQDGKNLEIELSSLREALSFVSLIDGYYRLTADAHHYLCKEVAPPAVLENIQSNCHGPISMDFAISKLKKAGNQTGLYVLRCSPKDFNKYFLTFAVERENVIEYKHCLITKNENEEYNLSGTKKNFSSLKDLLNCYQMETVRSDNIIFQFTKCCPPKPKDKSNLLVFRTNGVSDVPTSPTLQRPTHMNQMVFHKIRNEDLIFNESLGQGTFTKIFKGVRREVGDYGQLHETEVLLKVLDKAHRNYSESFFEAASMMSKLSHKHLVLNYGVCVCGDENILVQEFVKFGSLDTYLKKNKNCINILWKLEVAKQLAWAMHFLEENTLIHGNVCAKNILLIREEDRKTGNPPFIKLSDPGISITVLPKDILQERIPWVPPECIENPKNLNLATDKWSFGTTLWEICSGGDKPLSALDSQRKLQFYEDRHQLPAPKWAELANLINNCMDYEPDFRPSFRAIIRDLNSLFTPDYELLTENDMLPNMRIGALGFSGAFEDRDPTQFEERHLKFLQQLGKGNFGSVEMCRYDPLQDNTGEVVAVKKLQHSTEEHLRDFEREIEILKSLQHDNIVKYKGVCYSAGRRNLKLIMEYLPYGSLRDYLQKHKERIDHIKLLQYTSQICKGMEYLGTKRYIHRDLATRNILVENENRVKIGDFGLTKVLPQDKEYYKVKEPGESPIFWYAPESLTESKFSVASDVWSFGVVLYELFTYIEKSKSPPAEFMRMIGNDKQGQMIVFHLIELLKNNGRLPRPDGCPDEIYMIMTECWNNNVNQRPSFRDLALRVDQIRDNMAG
T1 sequence (P23458 whole entry): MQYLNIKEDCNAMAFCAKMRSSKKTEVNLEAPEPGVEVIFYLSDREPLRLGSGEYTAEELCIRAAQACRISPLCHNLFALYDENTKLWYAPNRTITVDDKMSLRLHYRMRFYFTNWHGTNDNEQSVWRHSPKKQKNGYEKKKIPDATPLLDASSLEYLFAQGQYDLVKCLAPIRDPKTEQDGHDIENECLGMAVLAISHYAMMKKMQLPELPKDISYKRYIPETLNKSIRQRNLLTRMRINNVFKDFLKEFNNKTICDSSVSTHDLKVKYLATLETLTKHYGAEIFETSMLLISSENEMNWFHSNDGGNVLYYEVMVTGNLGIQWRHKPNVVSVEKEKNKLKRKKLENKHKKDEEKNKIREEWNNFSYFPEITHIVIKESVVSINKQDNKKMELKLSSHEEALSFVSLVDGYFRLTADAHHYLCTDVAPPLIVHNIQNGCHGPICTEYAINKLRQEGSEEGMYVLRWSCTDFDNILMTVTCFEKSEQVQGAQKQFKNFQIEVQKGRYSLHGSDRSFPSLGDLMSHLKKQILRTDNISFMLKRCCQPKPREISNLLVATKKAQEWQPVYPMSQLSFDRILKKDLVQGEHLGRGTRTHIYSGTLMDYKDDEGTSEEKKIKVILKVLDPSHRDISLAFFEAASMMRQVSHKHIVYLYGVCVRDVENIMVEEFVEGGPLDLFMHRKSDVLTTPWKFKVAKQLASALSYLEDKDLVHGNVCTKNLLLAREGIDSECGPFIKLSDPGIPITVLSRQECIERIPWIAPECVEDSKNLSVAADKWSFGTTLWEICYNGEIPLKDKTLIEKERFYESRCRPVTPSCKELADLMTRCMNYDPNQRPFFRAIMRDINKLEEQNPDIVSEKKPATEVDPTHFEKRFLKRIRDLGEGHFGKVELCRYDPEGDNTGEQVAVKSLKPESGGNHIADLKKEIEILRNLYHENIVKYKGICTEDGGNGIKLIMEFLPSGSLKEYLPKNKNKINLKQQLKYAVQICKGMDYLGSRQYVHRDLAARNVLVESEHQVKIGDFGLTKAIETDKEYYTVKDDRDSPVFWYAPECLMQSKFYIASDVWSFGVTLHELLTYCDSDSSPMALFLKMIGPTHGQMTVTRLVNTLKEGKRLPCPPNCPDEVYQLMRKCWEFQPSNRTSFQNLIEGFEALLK

IC50 (Recombinant JAK1) [µM]	IC50 (Recombinant JAK2) [µM]	IC50 ([1]; Homo sapiens, TF-1, TF-1 cells) [µM]	IC50 ([2]; Homo sapiens) [µM]	IC50 ([3]; HT2, HT-2 cells) [µM]	IC50 [4] [µM]	IC50 (Recombinant JAK3) [µM]	IC50 (Recombinant TYK2) [µM]	IC50 ([1]; TF-1 cells) [µM]	IC50 [2] [µM]	IC50 ([3]; HT-2 cells) [µM]	Compound
0.0003	0.005	0.05	1.5	0.15	> 3						CN1CC(C(O)(c2ccc(-n3cc(-c4ccnc5[nH]cnc45)cn3)nc2)C(F)(F)F)C1 (centres unmarked) [Example 1231, 1-(6-(4-(3H-imidazo[4,5-b]pyridin-7-yl)-1H-pyrazol-1-yl)pyridin-3-yl)-2,2,2-trifluoro-1-(1-methylazetidin-3-yl)ethanol]
0.003	0.023	0.09	> 1	0.34	> 3	0.015	0.2				CCN1CCC([C@@](O)(c2ccc(-n3cc(-c4ccnc5[nH]cnc45)cn3)nc2)C(F)(F)F)C1 (stereo partly drawn) [Example 1232, (R)-1-(6-(4-(3H-imidazo[4,5-b]pyridin-7-yl)-1H-pyrazol-1-yl)pyridin-3-yl)-1-(1-ethylpyrrolidin-3-yl)-2,2,2-trifluoroethanol]
	> 0.03	0.36	> 1	0.55	> 1		> 1				CN1CCC([C@@](O)(c2ccc(-n3cc(-c4ccnc5[nH]cnc45)cn3)nc2)C(F)(F)F)C1 (stereo partly drawn) [Example 1235, (R)-1-(6-(4-(3H-imidazo[4,5-b]pyridin-7-yl)-1H-pyrazol-1-yl)pyridin-3-yl)-2,2,2-trifluoro-1-(1-methylpyrrolidin-3-yl)ethanol]
< 0.1	< 0.1	> 0.1	> 0.75	> 0.5		< 0.1	> 0.1				N#CCCC(O)(c1ccc(-n2cc(-c3ccnc4[nH]cnc34)cn2)nc1)C(F)(F)F (centres unmarked) [Example 1227, 4-(6-(4-(3H-imidazo[4,5-b]pyridin-7-yl)-1H-pyrazol-1-yl)pyridin-3-yl)-5,5,5-trifluoro-4-hydroxypentanenitrile]
< 0.1	< 0.1	> 1	1	> 1		< 0.1	> 1				O=C(NC1CC1)NC(c1ccc(-n2cc(-c3ccnc4[nH]cnc34)cn2)nc1)C(F)(F)F (centres unmarked) [Example 1178, 1-(1-(6-(4-(3H-imidazo[4,5-b]pyridin-7-yl)-1H-Pyrazol-1-yl)pyridin-3-yl)-2,2,2-trifluoroethyl)-3-cyclopropylurea]
0.006		0.14	> 1	0.47	> 1		0.67				CN1CCC([C@](O)(c2ccc(-n3cc(-c4ccnc5[nH]cnc45)cn3)nc2)C(F)(F)F)C1 (stereo partly drawn) [Example 1234, (S)-1-(6-(4-(3H-imidazo[4,5-b]pyridin-7-yl)-1H-pyrazol-1-yl)pyridin-3-yl)-2,2,2-trifluoro-1-(1-methylpyrrolidin-3-yl)ethanol]
0.015		0.35	> 1	0.9	> 3	0.041	> 1				CS(=O)(=O)CC[C@H](c1ccc(-n2cc(-c3ccnc4[nH]cnc34)cn2)nc1)C(F)(F)F [Example 1182, 7-(1-(5-((R)-1,1,1-trifluoro-4-(methylsulfonyl)butan-2-yl)pyridin-2-yl)-1H-pyrazol-4-yl)-3H-imidazo[4,5-b]pyridine]
0.023	0.015					0.009	0.52	0.1	1	0.6	CNCCC(c1ccc(-n2cc(-c3ccnc4[nH]cnc34)cn2)nc1)C(F)(F)F (centres unmarked) [Example 1200, 3-(6-(4-(3H-imidazo[4,5-b]pyridin-7-yl)-1H-pyrazol-1-yl)pyridin-3-yl)-4,4,4-trifluoro-N-methylbutan-1-amine]
0.053	0.38	> 0.5	> 10	> 1		0.11	> 1				CC(=O)N1CCC(C(O)(c2ccc(-n3cc(-c4ccnc5[nH]cnc45)cn3)nc2)C(F)(F)F)CC1 (centres unmarked) [Example 1131, 1-(4-(1-(6-(4-(3H-imidazo[4,5-b]pyridin-7-yl)-1H-pyrazol-1-yl)pyridin-3-yl)-2,2,2-trifluoro-1-hydroxyethyl)piperidin-1-yl)ethanone]
0.018	0.108	0.3	> 10	1.3		0.055	> 1				CS(=O)(=O)CCC(c1ccc(-n2cc(-c3ccnc4[nH]cnc34)cn2)nc1)C(F)(F)F (centres unmarked) [Example 1174, 7-(1-(5-(1,1,1-trifluoro-4-(methylsulfonyl)butan-2-yl)pyridin-2-yl)-1H-pyrazol-4-yl)-3H-imidazo[4,5-b]pyridine]
< 0.1	> 0.1	> 0.5	> 1	> 1		< 0.1	> 1				CNC(=O)CC(c1ccc(-n2cc(-c3ccnc4[nH]cnc34)cn2)nc1)C(F)(F)F (centres unmarked) [Example 1145, 3-(6-(4-(3H-imidazo[4,5-b]pyridin-7-yl)-1H-pyrazol-1-yl)pyridin-3-yl)-4,4,4-trifluoro-N-methylbutanamide]
< 0.1	> 0.1	> 0.8	> 1	> 1		> 0.1	> 1				CC(C)S(=O)(=O)CCC(c1ccc(-n2cc(-c3ccnc4[nH]cnc34)cn2)nc1)C(F)(F)F (centres unmarked) [Example 1186, 7-(1-(5-(1,1,1-trifluoro-4-(isopropylsulfonyl)butan-2-yl)pyridin-2-yl)-1H-pyrazol-4-yl)-3H-imidazo[4,5-b]pyridine]
< 0.1	< 0.1	> 0.5	> 1	> 1		< 0.1	> 1				O=C(CCC(c1ccc(-n2cc(-c3ccnc4[nH]cnc34)cn2)nc1)C(F)(F)F)NC1CC1 (centres unmarked) [Example 1150, 4-(6-(4-(3H-imidazo[4,5-b]pyridin-7-yl)-1H-pyrazol-1-yl)pyridin-3-yl)-N-cyclopropyl-5,5,5-trifluoropentanamide]
	0.01	0.19	> 1	> 0.5	> 3	0.005					CC(C)N1CC(C(O)(c2ccc(-n3cc(-c4ccnc5[nH]cnc45)cn3)nc2)C(F)(F)F)C1 (centres unmarked) [Example 1237, 1-(6-(4-(3H-imidazo[4,5-b]pyridin-7-yl)-1H-pyrazol-1-yl)pyridin-3-yl)-2,2,2-trifluoro-1-(1-isopropylazetidin-3-yl)ethanol]
